We go through 2 compounds from patent publication US7897330B2, “Methods for characterizing enzyme inhibitors” (AB Sciex, LLC, priority 2005, dated 2011).

In one assay the target is P. falciparum LDH (Plasmodium falciparum, UniProt Q27743). As to the kind of experiment: fluorescence-coupled LDH enzyme assay on microfluidics system, continuously variable concentration gradient, fit to Equation 4. The class given is biochemical. An excerpt:
A fluorescence-coupled enzyme assay was developed using a microfluidics system described herein for creating a continuously variable concentration gradient to monitor the reduction of NAD^+ by the enzyme LDH to give a fluorescent end product. This system was then adapted to measure potency and determine mechanism of inhibition by various inhibitors of LDH.
One of the products of the reaction in the assay, NADH, is coupled to Thermus thermophilus NADH oxidase to generate H2O2, which in turn is coupled to horseradish peroxidase which reacts with […] and amplex red (Molecular Probes, Inc., Eugene, Oreg., U.S.A.) to give the fluorescent product resorufin. […]
The novel data analysis techniques described herein for determining the mechanism of inhibition of an inhibitor (or mechanism of activation of an activator) are applied to the data produced from the microfluidics system. The titration of the enzyme with a continuous linear variation of inhibitor and substrate from zero to a pre-determined finite concentration yields a characteristic rate profile that is defined by the specific type of interaction of the inhibitor and enzyme with respect to the substrate. […]
The titration of LDH with a linear gradient of NAD^+ was performed on the microfluidics system described herein with the change in relative fluorescence intensity monitored under initial rate conditions. […]

Assay [1] deals with T1, rabbit muscle lactate dehydrogenase (LDH) (Oryctolagus cuniculus, UniProt P13491).
T1 construct: the enzyme rabbit muscle lactate dehydrogenase (LDH); from tissue; host or cells: rabbit muscle
As to the kind of experiment: continuous variation method on microtiter plate, step concentration gradients. The class given is biochemical. An excerpt: Determination of the mechanism of inhibition by the inhibitor oxalate with respect to the substrate NAD^+ against the enzyme rabbit muscle lactate dehydrogenase (LDH) using a microtiter plate to generate individual step concentration gradients was attempted. FIG. 47 is a graph showing the results of the experiment. An attempt to determine the mechanism of inhibition by the inhibitor oxalate with respect to the substrate lactate against the enzyme rabbit muscle LDH using a microtiter plate to generate individual step concentration gradients was attempted. FIG. 48 is a graph showing the results of this experiment.

For the next assay, the system named is LDH. The following applies: cited from earlier work.

Where two headings read alike, the source gives them in different places.

P. falciparum LDH, sequence (Q27743 whole entry): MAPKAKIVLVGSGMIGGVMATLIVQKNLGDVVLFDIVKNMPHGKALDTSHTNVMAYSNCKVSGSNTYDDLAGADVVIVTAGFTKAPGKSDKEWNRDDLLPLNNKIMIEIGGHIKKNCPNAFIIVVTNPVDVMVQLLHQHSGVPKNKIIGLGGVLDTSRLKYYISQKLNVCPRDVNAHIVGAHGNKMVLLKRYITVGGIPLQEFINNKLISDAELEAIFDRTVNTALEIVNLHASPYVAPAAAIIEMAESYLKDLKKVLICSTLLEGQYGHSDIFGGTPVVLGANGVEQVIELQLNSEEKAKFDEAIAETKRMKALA

For the compound `NC(=O)c1ccc[n+]([C@@H]2O[C@H](COP(=O)([O-])OP(=O)(O)OC[C@H]3O[C@@H](n4cnc5c(N)ncnc54)[C@H](O)[C@@H]3O)[C@@H](O)[C@H]2O)c1` [NAD^+], at P. falciparum LDH (titration of LDH with linear gradient of NAD+, initial rate conditions, read-out: Km (Michaelis constant)), the Michaelis constant (Km) turned out to be 54 ± 2 µM.
For `O=C(O)C(=O)O` [oxalate], the mechanism of inhibition entry at P. falciparum LDH (with respect to substrate NAD+, continuous gradient) was “uncompetitive inhibition”; in assay [1] (with respect to NAD+, ambiguous), “uncompetitive inhibitor”; in assay [1] (with respect to lactate, not certain), “competitive inhibitor”; in the assay with LDH (with respect to NAD+) it was “uncompetitive”; in the assay on LDH (with respect to lactate), “competitive inhibitor”.
